Assay results: patent US11754548B2, “Method of in vitro cellular assay, cell circuit board, and method of manufacturing cell circuit board” (RICOH COMPANY, LTD., priority 2019, dated 2023)

How the values were obtained:
[1] = test system: cell population A (iCell GABANeurons) and cell population B (GABAergic Neurons from Healthy Donor), neural cells derived from iPS cells; experiment: Action potential measurement (MEA, MED64 system) of the cell circuit board including an inhibitory GABAergic cell population, connected via neurites, treated with drug (Example 4); type: cell-based; details: 30 μM final concentration, 10 minutes at 37° C.; populations connected via neurites; FIG. 18
Description: A cell circuit board in which the cell population A and the cell population B were disposed to be spaced apart from each other on the board was prepared using the same method as in Example 1 except that frozen neural cells which are derived from iPS cells (iCell GABANeurons) and are commercially available from Cellular Dynamics International were used as the cell population A, and the same cells as in Example 1 (GABAergic Neurons from Healthy Donor) were used as the cell population B.
Using the same method as in Example 1, at the fourth week of the culture, action potentials detectable from the electrodes were measured for 5 minutes in a state in which the cell population A and the cell population B were connected via neurites. A raster plot that visualizes synchronized firing patterns is illustrated in FIG. 17. In addition, FIG. 16 illustrates a raster plot for visualizing firing patterns of respective cell populations cultured by plating on a board alone.
The mixture was allowed to stand for 10 minutes in a CO2 incubator at 37° C.
For respective cell populations in the above section “3.” which were treated with the drug, action potentials detectable from the electrodes were measured for 5 minutes with the MED64 system. The results are illustrated in FIG. 18.

[2] = test system: cell population A (Mixed Neurons from Healthy Donor) and cell population B (GABAergic Neurons from Healthy Donor), neural cells derived from iPS cells; experiment: Action potential measurement (MEA, MED64 system) of the cell circuit board with cell populations A and B connected via neurites, and after cutting the neurites, treated with drug (Example 2); type: cell-based
Description: Two types of frozen neural cell which are derived from iPS cells (GABAergic Neurons from Healthy Donor and Mixed Neurons from Healthy Donor) and are commercially available from Elixirgen Scientific were suspended in a medium and plated on a board including an electrode of a multi-electrode array (MEA; SCREEN Holdings Co., Ltd.) coated with 0.05% polyethyleneimine ([…]; manufactured by Sigma) and a 80 μg/mL laminin solution (manufactured by Sigma) in advance. Synchronous firing of the neural cells was checked to be induced by formation of a network after 3 weeks of the culture. A cell population containing more excitable cells and presenting synchronous firing in a short cycle was designated as a cell population A, and a cell population containing many suppressor cells and presenting synchronous firing in a long cycle was designated as a cell population B.
FIG. 4 is a diagram illustrating a test flow in Example 1. First, a board 5 to which partition members 8a and 8b, which are made of dimethylpolysiloxane (PDMS), and frame members 9a and 9b are respectively bonded was prepared so that a region including the cell population A (10) and a region including the cell population B (20) are separated. Next, on the board 5, two types of cell suspension each including the cell population A (10) and the cell population B (20) having different electrophysiological behaviors which were obtained in “1.” were plated in the respective regions surrounded by the frame members 9a and 9b while not mixing these cell populations. In a case where an area of the region was as large as more than 10 mm^2, respective cell suspensions were plated using a micropipette. In a case where an area was as small as 10 mm^2 or less, plating could not be performed manually, and therefore respective cell suspensions were plated using an ink jet bioprinter for cell discharge. […]
The cell population A and the cell population B were cultured for 4 weeks in a state in which they were connected via neurites (a state in which a neural network was formed), and action potentials detectable from the electrodes were measured for 5 minutes with an MED64 system (SCREEN Holdings Co., Ltd.). An electrical waveform was analyzed using software, BurstScope included in the MED64 system. […]
For respective cell populations in “2.” which were treated with the drug, action potentials detectable from the electrodes were measured for 5 minutes with the MED64 system. […]
The neurites between the cell population A and the cell population B were then cut as illustrated in FIG. 4. After cutting, the cells were cultured for 10 minutes in a CO2 incubator and stabilized, and then the action potential was measured again. […]

[3] = 10 μM final concentration, 10 minutes at 37° C., populations A and B connected via neurites, FIG. 8
[4] = 10 μM, neurites between A and B cut, 10 minutes stabilization, FIG. 9

| Compound | cycle of the synchronous firing pattern compared with before drug treatment [1] | synchronization between cell population A and cell population B [1] | firing pattern of the cell population A (short-cycle firing) [2, 3] | synchronization of the firing pattern of cell population A with cell population B [2, 3] | firing pattern of the cell population B after cutting the neurites [2, 4] | synchronous firing period of the cell population A after cutting the neurites [2, 4] |
| --- | --- | --- | --- | --- | --- | --- |
| picrotoxin | significantly shorter cycle than that before the drug treatment | remained synchronized | – | – | – | – |
| N[C@H](CCCP(=O)(O)O)C(=O)O [D-AP5, D-(−)-2-amino-5-phosphonopentanoic acid] | – | – | firing in a short cycle disappeared | became a firing pattern synchronized in the form of the same cycle and peak as those of the cell population B | does not change | greatly prolonged |
